Source: patent US8664267B2 (Academic Pharmaceuticals Incorporated, priority 2007, dated 2014)

Key:
dog = details: Torres-Arrault et al. 1984, cited from earlier work
[1] = administered intravenously; cited from earlier work

SMILES | cardiac depressant effect (dog) | hypotension (dog; dog) | dose-dependent suppression of arrhythmias compared with the saline control group (Coronary Occlusion (Rat)) | onset of action and hemodynamic and electrophysiological effect [1]
CCCCCCCC/C=C\CCCCCCCC(=O)OCCOCC(OCCO)C1OCC(OCCO)C1OCCO (stereo not shown) [Tween-80, polysorbate 80] | potent cardiac depressant | causes hypotension | – | –
CCCCc1oc2ccccc2c1C(=O)c1cc(I)c(OCCN(CC)CC)c(I)c1 [amiodarone, 2-n-butyl-3-(3,5-diiodo-4-β-N-diethylaminoethoxy-benzoyl)benzofuran] | – | – | significantly different | rapid onset of action causing profound hemodynamic and electrophysiological effect
